Results from US20240343761A1, “APELINERGIC MACROCYCLES AND USES THEREOF” (priority 2021, published 2024).
Where two headings read alike, the source gives them in different places. Bridge positions count the residues as written; N and C are the ends. Square brackets hold non-standard residues; d marks the D form. Ends that are not written are not given here. d1Nal = N[C@H](Cc1cccc2ccccc12)C(=O)O; AllylGly = C=CC[C@H](N)C(=O)O

T1: hAPJ receptor (Homo sapiens, UniProt P35414)
T1 construct: expressed in transfected cells; host or cells: HEK293, transient transfection with PEI
T1 sequence (P35414 1-380): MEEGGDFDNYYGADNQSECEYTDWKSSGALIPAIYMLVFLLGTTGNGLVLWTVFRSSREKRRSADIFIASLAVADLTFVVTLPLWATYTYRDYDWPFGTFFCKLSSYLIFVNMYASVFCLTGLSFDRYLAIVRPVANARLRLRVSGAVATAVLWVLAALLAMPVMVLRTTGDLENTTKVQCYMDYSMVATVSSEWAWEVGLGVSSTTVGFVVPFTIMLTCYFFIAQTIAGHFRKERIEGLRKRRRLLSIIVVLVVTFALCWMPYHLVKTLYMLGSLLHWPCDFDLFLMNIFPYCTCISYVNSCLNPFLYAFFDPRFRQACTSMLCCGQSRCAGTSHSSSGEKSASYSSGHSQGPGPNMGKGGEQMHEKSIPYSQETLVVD

T2: YFP-tagged human APJ receptor (human, UniProt P35414 1-380)
T2 construct: whole, on cells; also called hAPJ; APJ WT; not shown: YFP tag
T2 sequence (looked up): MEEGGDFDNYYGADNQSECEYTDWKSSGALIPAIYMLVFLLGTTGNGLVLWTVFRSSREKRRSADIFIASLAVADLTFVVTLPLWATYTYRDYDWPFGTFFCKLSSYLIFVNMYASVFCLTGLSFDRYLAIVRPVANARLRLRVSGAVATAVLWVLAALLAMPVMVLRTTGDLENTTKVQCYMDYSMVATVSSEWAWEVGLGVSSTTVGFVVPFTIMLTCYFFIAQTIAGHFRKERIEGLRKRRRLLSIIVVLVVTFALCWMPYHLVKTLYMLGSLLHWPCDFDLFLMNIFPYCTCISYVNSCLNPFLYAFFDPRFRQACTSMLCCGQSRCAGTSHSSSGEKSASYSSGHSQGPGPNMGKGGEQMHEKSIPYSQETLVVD

T3: human APJ (transfected HEK293 cells, Gαi1 BRET assay) (human, UniProt P35414 1-380)
T3 sequence (looked up): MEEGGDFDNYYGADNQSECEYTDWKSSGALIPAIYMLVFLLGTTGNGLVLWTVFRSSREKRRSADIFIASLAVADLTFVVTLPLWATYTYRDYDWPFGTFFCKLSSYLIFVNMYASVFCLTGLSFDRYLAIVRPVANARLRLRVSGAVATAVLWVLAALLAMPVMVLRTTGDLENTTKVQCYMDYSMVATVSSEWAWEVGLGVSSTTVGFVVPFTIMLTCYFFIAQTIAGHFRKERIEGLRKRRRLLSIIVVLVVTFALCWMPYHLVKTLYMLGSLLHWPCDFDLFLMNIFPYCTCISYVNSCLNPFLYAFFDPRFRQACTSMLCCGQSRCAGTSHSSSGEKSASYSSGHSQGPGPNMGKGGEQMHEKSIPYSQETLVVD


Columns and labels:
[1] = biological target: T1, hAPJ receptor; experiment: BRET-based β-arrestin2 recruitment assay in HEK293 cells; assay type: cell-based; details: for Emax: HEK293
In short: (§1)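 HEK293 cells in HBSS stimulated with analogs from 10^−5 to 10^−11 M, 5 min at 37 °C (Gαi1) or 30 min at room temperature (β-arrestin2).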

[2] = biological target: T1, hAPJ receptor; experiment: BRET-based Gαi1 activation assay in HEK293 cells; assay type: cell-based; details: for Emax: HEK293, Table V, read-out: Gαi1 Emax
In short: as §1

[3] = system: anesthetized male Sprague-Dawley rats; experiment: In vivo blood pressure measurement; design: species or system rat; details: i.v. bolus, doses 19.6 and 65 nmol/kg
Experimental: The animal experimental protocols were approved by the Animal Care Committee of Université de Sherbrooke and complied with policies and directives of the Canadian Council on Animal Care.
Male Sprague-Dawley rats (8-10 weeks of age) were anesthetized with ketamine/xylazine injection (87/13 mg/kg i.m.) and placed in supine position on a thermostatic pad. Their right carotid artery was catheterized with PE 50 (filled with heparinized saline), connected to a Micro-Med transducer (model TDX-300, Calabasas, USA) and Micro-Med blood pressure analyzer (model BPA-100c). […] This i.v. catheter was flushed with saline (0.2 mL) immediately after each injection.

[4] = Rat plasma stability (half-life in vitro); assay type: in vitro ADME; details: rat plasma; for half-life at […]: male, Sprague-Dawley, rat, plasma
Experimental: Plasma was obtained from male Sprague-Dawley rats by collecting blood in heparin tube and centrifugating at 13,000 rpm to remove blood cells. The isolated plasma was stored at −80° C. and thawed right before the test. In 96-well plate, 6 μL of peptide solution at 1 mM was incubated with 27 μL of plasma at 37° C. in an oven equipped with orbital shaker. Tightly fitted caps were used to seal the wells to avoid water evaporation during incubation. […] A 96-well UPLC plate was put at the bottom to collect the samples. Both plates were centrifuged at 500 g for 10 min at 4° C. to accelerate the filtration. […] The quantity of remaining peptide was plotted into an exponential one-phase decay curve using GraphPad Prism 8 which allowed to calculate peptide half-life. The results were presented as mean±SEM of at least 3 independent experiments, each done in simplicate.
The percentage of remaining analogue was calculated by doing the ratio between AU of compound and AUC of internal standard. Half-lives were extrapolated from curves.

[5] = system: Sprague-Dawley rats; experiment: Echocardiography (cardiac performance) after s.c. injection; details: for effect on fractional shortening (FS) and cardiac output (CO): s.c. 0.2 μmol/kg, three hours after injection
Experimental: A two-dimensional short axis view of the LV was obtained at the level of the papillary muscle and the M-mode tracing was recorded. From these images, Heart Rate (HR) was calculated and LV End Diastolic (LVEDd) as well as LV End Systolic diameters (LVESd) were measured by the leading-edge method according to the American Society of Echocardiography guidelines. Fractional Shortening (FS) was calculated by the following formula: FS=([LVEDd-LVESd/LVEDd]×100%). Cardiac Output (CO) was assessed from a LV long axis view. Stroke Volume (SV) was calculated according to the Simpson method by tracing the endocardial border in end-systole and end-diastole and CO was obtained as CO=SV×HR.

[6] = in vivo; details: for AUC: male Sprague-Dawley rats
Experimental: Male Sprague-Dawley rats of 8-10 weeks were used in this study. […] Animals were placed in a containment chamber prior to i.v. injection to facilitate blood sampling. […] Those samples were immediately stored on crushed ice before being centrifuged at 13000 rpm for 5 min at 4° C. to isolate plasma (upper layer). The resultant plasma was transferred to polypropylene tubes, and immediately frozen at −80° C.
A combination of a protein precipitation and a solid phase extraction step were used to extract the peptides. Plasma sample was defrosted on ice. After vortex agitation (60 s), 100 μL sample was withdraw and 300 μL cold acetonitrile was added to precipitate the plasma proteins. The sample was then vortex (60 s) and centrifuged at 4500 rpm at 4° C. during 10 min. The supernatant was then isolated and directly pass through an HLB prime for additional clean up. The filtrate was diluted 10 times in 0.1% formic acid/water and filtered through a 0.22 μm syringe filter before LC/MS/MS analysis.
Samples were analyzed on a Sciex Qtrap 6500+ equipped with a microflow liquid chromatography (Eksigient M3 microflow) and a UPLC HSS-T3 column (1 mm×100 mm, 1.8 μm, equipped with a 0.2 μm fritted pre-filter). The solvent flow rate was set to 50 μL/min, the column temperature was kept at 40° C. and the injection volume was 3 μL. The mobile phase was 0.1% formic acid/water (A) and 0.1% formic acid/acetonitrile (B). The elution gradient starts with 2% of eluent B, increasing to 95% in 8 min, maintaining at 95% for 2 min and then back to initial conditions in 2 min for a total run time of 13 min. […] Analysis used two daughter traces (transitions), among them, the most abundant was for quantification and the second most abundant for confirmation.

[7] = biological target: T2, YFP-tagged human APJ receptor; experiment: competitive radioligand binding, HEK293-hAPJ membranes
[8] = biological target: human APJ (transfected HEK293 cells, Gαi1 BRET assay) (human) (UniProt P35414); experiment: cell-based or functional assay
[9] = biological target: T3, human APJ (transfected HEK293 cells, …); experiment: cell-based or functional assay
[10] = male, Sprague-Dawley, rat, plasma, iv, 3 mg/kg

| Molecule | Emax ([1]; Table V, read-out: ß-arr2 Emax) [%] | Emax ([1]; read-out: β-arr2 Emax) [%] | Emax [2] [%] | ΔMABP (drop in blood pressure) [3] [mmHg] | effect on fractional shortening (FS) and cardiac output (CO) [5] | AUC ([6]; i.v. 3 mg/kg) | other results |
| --- | --- | --- | --- | --- | --- | --- | --- |
| CCCC[C@H](NC(=O)[C@@H]1CCCN1C(=O)CNC(=O)[C@H](CCCCN)NC(=O)[C@@H]1Cc2cncn2CC=CC[C@H](NC(=O)[C@H](CCCNC(=N)N)NC(=O)[C@@H]2CCC(=O)N2)C(=O)N[C@@H](CCCNC(=N)N)C(=O)N[C@@H](CC(C)C)C(=O)N[C@@H](CO)C(=O)N1)C(=O)N1CCC[C@H]1C(=O)N[C@@H](Cc1ccccc1)C(=O)O [Compound 15, Pyr-R-c[X-R-L-S-Alh]c-K-G-P-Nle-P-F] | 115 | 115 | 99 | −40 | – | – | – |
| CCCC[C@H](NC(=O)[C@@H]1CCCN1C(=O)CNC(=O)[C@H](CCCCN)NC(=O)[C@@H]1CC=CC[C@H](N)C(=O)N[C@@H](CCCNC(=N)N)C(=O)N[C@@H](CC(C)C)C(=O)N[C@@H](CO)C(=O)N1)C(=O)N1CCC[C@H]1C(=O)N[C@@H](Cc1ccccc1)C(=O)O [Compound 20, NH2-c[X-R-L-S-X]c-K-G-P-Nle-P-F] | 98 | 98 | 100 | −27 | – | – | – |
| CCCC[C@H](NC(=O)[C@@H]1CCCN1C(=O)CNC(=O)[C@H](CCCCN)NC(=O)[C@@H]1CC=CC[C@H](N)C(=O)N[C@@H](CCCNC(=N)N)C(=O)N[C@@H](CC(C)C)C(=O)N[C@@H](CO)C(=O)N1)C(=O)O [Compound 29, NH2-c[X-R-L-S-X]c-K-G-P-Nle] | 69 | 69 | 99 | −13 | – | – | times less stable than 20 [4]: 3 times; times less stable than full-length analog 13 [4]: 5 times |
| CC(C)C[C@@H]1NC(=O)[C@H](CCCNC(=N)N)NC(=O)[C@@H](N)CC=CC[C@@H](C(=O)N[C@@H](CCCCN)C(=O)NCC(=O)N2CCC[C@H]2C(=O)N[C@H](Cc2cccc3ccccc23)C(=O)O)NC(=O)[C@H](CO)NC1=O [Compound 42, NH2-c[X-R-L-S-X]c-K-G-P-(D-1Nal)] | 70 | 70 | 103 | −24 | significant increase only in FS | 1.33 ± 0.18 min*(mg/mL) | agonist character on β-arrestin [1]: partial agonists; plasma presence at 4 h ([6]; 3 mg/kg): completely cleared from plasma; agonist character on Gαi1 [2]: full agonists |
| CC(C)C[C@@H]1NC(=O)[C@H](CCCNC(=N)N)NC(=O)[C@@H](N)CC=CC[C@@H](C(=O)N[C@@H](CCCCN)C(=O)NCC(=O)N2CCC[C@H]2C(=O)N[C@H](Cc2ccc3ccccc3c2)C(=O)O)NC(=O)[C@H](CO)NC1=O [Compound 43, NH2-c[X-R-L-S-X]c-K-G-P-(D-2Nal)] | 55 | 55 | 105 | – | significant increase in both FS and CO | 8.80 ± 0.41 min*(mg/mL) | agonist character on β-arrestin [1]: partial agonists; CO increase from baseline ([5]; s.c. 2 μmol/kg, 6 h): 16%; FS increase ([5]; s.c. 2 μmol/kg, 6 h): 17%; level at 5 min [6, 10]: 36100 ng/mL; level at 4 h [6, 10]: 8600 ng/mL; agonist character on Gαi1 [2]: full agonists; effect on blood pressure [3]: no effect; half-life at […] ([4]; Table I, 37° C., up to 24 h, read-out: Half-life in vitro (converted)): > 1440 min; half-life at […] ([4]; Table V, read-out: Half-life t1/2): > 1440 min |
| CSCC[C@H](NC(=O)[C@@H]1CCCN1C(=O)CNC(=O)[C@H](CCCCN)NC(=O)[C@H](Cc1cnc[nH]1)NC(=O)[C@H](CO)NC(=O)[C@H](CC(C)C)NC(=O)[C@H](CCCNC(=N)N)NC(=O)[C@@H]1CCCN1C(=O)[C@H](CCCNC(=N)N)NC(=O)[C@@H]1CCC(=O)N1)C(=O)N1CCC[C@H]1C(=O)N[C@@H](Cc1ccccc1)C(=O)O [Compound 60, Pyr-R-P-R-L-S-H-K-G-P-M-P-F, reference compound] | – | – | – | – | no observable effect | 0.0002 ± 0.0001 min*(mg/mL) | completely disappeared after ([6]; i.v. 3 mg/kg): 5 min; clearance [6, 10]: > 100 mL/min/kg |
| Ac-Ape17-Met15Nle (KT03-12) (peptide) | – | – | – | – | – | – | Ki [7]: 0.15 nM; EC50 Gαi1 [8]: 2.88 nM |
| H-[AllylGly]RLS[AllylGly]KGP[d1Nal] (staple 1-5) [Compound 42 (KT04-43)] | – | – | – | – | – | – | Ki [7]: 0.6 nM; Gαi1 Emax (%) [9]: 103% |
